Structures can show the parent of a compound that is named as a salt.
target: T1, recombinant human baculovirus-expressed GST-tagged FASN (Homo sapiens, UniProt P49327); assay: FASN enzyme activity assay, fluorescence-based detection of CoA with CPM; format: biochemical; settings: 5 nM FASN, 150 μM NADPH, 10 μM acetyl-CoA, 25 μM malonyl-CoA, 90 minutes incubation; read-out: IC50 data for Additional Compounds of Formulae I-V(a): Activity
T1 construct: GST
Description: FASN Enzyme activity may be determined by detecting coenzyme A (CoA), a product of FASN-catalyzed synthesis of palmitate from acetyl-CoA and malonyl-CoA with NADPH as a cofactor. The assay is fluorescence-based and measures the interaction of free CoA with 7-diethylamino-3-(4′-malemimidylphenyl)-4-methylcoumarin (CPM; Life Technologies, CA) as described in Chung et al (2008). The coumarin derivative CPM contains a thiol-reactive maleimide that becomes fluorescent upon interaction with the sulfhydryl group of CoA.
For the example compounds described herein, the reaction was performed in 384-well low volume non-binding plates (Corning, N.Y.) using recombinant human baculovirus-expressed GST-tagged FASN. The 20-μL assay mixture contained 50 mM HEPES (pH 7.5), 5 nM FASN, 150 μM NADPH (Sigma, St. Louis, Mo.), 10 μM acetyl-CoA (Sigma), 25 μM malonyl-CoA (Sigma) and test compound [diluted in dimethyl sulfoxide (DMSO); 0.5% DMSO final in assay after 100 nL addition]. See, Chung et al.; “A fluorescence-based thiol quantification assay for ultra-high-throughput screening for inhibitors of coenzyme A production,” Assay Drug Dev Tech 2008; 6:361-374.
The reaction was initiated by adding malonyl-CoA, followed by incubation for 90 minutes at […]. A stock solution of the CPM reagent was prepared in DMSO at […] and stored at […]. To detect CoA produced in the FASN reaction, the CPM stock was diluted to […] in 70% ethanol and added at 4 μL/well to the assay plate. The reaction mixture was then incubated for 30 minutes. Fluorescence was measured using the EnVision™ 2102 multi-label plate reader (PerkinElmer, Waltham, Mass.) utilizing a general dual mirror, a 390 nm excitation filter and a 530 nm emission filter. Data analysis was performed using ActivityBase (IDBS, Guilford, UK). IC50 values were calculated by plotting the percent inhibition versus log 10 of the concentration of the compound, and fitting to the nonlinear regression sigmoidal dose-response (variable slope) equation in XLFit (IDBS).

T1 sequence (P49327 whole entry): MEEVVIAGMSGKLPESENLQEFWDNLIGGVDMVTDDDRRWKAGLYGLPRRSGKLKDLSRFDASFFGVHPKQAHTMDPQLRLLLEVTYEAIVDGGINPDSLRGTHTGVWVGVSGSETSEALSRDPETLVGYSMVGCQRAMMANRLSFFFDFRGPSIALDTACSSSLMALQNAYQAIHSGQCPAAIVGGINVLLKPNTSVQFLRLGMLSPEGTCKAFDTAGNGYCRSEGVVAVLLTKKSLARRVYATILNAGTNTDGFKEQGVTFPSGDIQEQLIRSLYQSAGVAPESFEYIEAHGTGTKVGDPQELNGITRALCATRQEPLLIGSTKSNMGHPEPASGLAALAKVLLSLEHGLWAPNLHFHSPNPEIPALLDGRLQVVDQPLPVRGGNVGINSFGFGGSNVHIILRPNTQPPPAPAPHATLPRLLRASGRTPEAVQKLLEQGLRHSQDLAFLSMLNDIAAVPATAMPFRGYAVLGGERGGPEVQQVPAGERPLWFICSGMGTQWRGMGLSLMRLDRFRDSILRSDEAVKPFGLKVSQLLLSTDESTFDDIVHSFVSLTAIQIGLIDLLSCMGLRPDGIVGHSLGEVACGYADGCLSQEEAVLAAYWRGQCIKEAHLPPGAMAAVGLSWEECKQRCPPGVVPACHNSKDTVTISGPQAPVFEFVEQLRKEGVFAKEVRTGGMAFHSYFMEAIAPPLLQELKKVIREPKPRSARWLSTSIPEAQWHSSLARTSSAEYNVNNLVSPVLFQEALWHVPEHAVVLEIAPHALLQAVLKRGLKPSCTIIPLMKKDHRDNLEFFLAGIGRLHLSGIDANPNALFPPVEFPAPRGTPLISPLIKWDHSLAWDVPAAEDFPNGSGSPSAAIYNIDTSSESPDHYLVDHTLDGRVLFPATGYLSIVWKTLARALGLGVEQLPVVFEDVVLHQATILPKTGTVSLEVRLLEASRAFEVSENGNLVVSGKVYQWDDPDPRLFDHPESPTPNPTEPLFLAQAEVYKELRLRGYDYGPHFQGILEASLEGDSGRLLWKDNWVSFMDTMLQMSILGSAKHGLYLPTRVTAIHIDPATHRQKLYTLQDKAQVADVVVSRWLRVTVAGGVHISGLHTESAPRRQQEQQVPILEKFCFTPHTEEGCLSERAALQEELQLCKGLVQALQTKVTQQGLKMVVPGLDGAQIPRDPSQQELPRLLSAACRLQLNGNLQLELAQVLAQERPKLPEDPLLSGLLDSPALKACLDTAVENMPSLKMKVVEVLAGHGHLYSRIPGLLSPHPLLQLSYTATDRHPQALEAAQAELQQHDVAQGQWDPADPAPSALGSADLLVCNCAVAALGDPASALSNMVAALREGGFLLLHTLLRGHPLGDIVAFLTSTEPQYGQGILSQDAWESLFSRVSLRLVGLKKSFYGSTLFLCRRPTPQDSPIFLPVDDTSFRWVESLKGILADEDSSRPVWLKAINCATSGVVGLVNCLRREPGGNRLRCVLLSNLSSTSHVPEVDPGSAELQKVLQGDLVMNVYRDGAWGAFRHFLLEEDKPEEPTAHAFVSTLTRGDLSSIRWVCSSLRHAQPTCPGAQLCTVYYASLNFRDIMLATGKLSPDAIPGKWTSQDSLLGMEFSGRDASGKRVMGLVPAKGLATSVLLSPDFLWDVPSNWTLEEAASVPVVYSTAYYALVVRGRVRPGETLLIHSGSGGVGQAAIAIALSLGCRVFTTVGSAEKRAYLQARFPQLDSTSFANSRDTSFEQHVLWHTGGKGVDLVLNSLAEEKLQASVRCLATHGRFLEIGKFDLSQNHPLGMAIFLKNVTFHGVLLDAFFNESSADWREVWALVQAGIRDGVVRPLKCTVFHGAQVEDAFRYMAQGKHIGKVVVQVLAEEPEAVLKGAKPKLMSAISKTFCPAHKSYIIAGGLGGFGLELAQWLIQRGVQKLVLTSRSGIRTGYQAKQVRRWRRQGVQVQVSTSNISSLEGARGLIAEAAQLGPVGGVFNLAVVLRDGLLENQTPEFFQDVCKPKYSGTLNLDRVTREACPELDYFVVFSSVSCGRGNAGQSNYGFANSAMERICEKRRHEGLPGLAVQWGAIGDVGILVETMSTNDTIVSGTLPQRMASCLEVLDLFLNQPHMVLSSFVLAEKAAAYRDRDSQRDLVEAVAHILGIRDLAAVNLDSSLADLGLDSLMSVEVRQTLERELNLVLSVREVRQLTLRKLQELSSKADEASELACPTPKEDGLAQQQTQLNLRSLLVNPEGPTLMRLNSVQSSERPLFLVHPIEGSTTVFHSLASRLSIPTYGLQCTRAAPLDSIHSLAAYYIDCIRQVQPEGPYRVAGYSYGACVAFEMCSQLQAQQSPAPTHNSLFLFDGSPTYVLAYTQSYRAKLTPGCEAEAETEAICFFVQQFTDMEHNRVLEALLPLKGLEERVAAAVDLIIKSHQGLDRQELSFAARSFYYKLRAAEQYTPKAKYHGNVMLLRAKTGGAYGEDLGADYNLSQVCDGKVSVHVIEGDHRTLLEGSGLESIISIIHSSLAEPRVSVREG

SMILES	IC50 [nM]
Cc1c(-c2ccc(OC3CCN(C(=O)NC4CCOCC4)CC3)cc2)ccc2cccnc12 [Example 549, 4-[4-(8-Methyl-7-quinolyl)phenoxy]-N-tetrahydropyran-4-yl-piperidine-1-carboxamide, HCl]	1000 to 10000
CCNC(=O)N1CCC(Oc2ccc(-c3ccn4ccnc4c3)cc2)CC1 [Example 628, N-Ethyl-4-(4-imidazo[1,2-a]pyridin-7-ylphenoxy)piperidine-1-carboxamide, HCl]	1 to 99
Cc1c(-c2ccc(OC3CCN(C(=O)NCC(C)C)CC3)cc2)ccc2nccn12 [Example 593, N-Isobutyl-4-[4-(5-methylimidazo[1,2-a]pyridin-6-yl)phenoxy]piperidine-1-carboxamide]	1000 to 10000
Cc1c(-c2ccc(OC3CCN(C(=O)NOCC(C)C)CC3)cc2)ccc2cccnc12 [Example 544, N-Isobutoxy-4-[4-(8-methyl-7-quinolyl)phenoxy]piperidine-1-carboxamide]	1 to 99
Cc1c(-c2ccc(OC3CCN(C(=O)NCC(C)C)CC3)cc2)ccc2cccnc12 [Example 541, N-Isobutyl-4-[4-(8-methyl-7-quinolyl)phenoxy]piperidine-1-carboxamide, HCl]	1 to 99

same assay, conditions: 5 nM FASN, 150 μM NADPH, 10 μM acetyl-CoA, 25 μM malonyl-CoA, 90 minutes incubation; read-out: IC50 data for Compounds of Formulae I-V/V(a): Activity

SMILES	IC50 [nM]
CCC(=O)N1CCC(Oc2ccc(-c3cnc4ccoc4c3)cc2)CC1 [Example 51, 1-[4-(4-Furo[3,2-b]pyridin-6-yl-phenoxy)-piperidin-1-yl]-propan-1-one]	1000 to 10000
CCC(=O)N1CCC(Oc2ccc(-c3ccc4cccnc4c3OCCCN3CCCC3)cc2)CC1 [Example 175, 1-(4-{4-[8-(3-Pyrrolidin-1-yl-propoxy)-quinolin-7-yl]-phenoxy}-piperidin-1-yl)-propan-1-one, HCl]	1000 to 10000
O=C(C1CC1)N1CCC(Oc2ccc(-c3cnc4ccoc4c3)cc2)CC1 [Example 52, Cyclopropyl-[4-(4-furo[3,2-b]pyridin-6-yl-phenoxy)-piperidin-1-yl]-methanone]	1000 to 10000
Cc1c(-c2ccc(OC3CCN(C(=O)C4CC4)CC3)cc2)cnc2ccccc12 [Example 61]	1 to 99
COCCCOc1c(-c2ccc(OC3CCN(C(=O)[C@H]4CCCO4)CC3)cc2)ccc2cccnc12 [Example 187, [4-[4-[8-(3-Methoxypropoxy)-7-quinolyl]phenoxy]-1-piperidyl]-[(2R)-tetrahydrofuran-2-yl]methanone, HCl]	1 to 99
CC(=O)N1CCC(Oc2ccc(-c3cnc4ccccc4c3)cc2)CC1 [Example 112, 1-[4-(4-Quinolin-3-yl-phenoxy)-piperidin-1-yl]-ethanone, HCl]	100 to 999
O=C([C@H]1CCCO1)N1CCC(Oc2ccc(-c3ccc4cccnc4c3OCCN3CCOCC3)cc2)CC1 [Example 182, (4-{4-[8-(2-Morpholin-4-yl-ethoxy)-quinolin-7-yl]-phenoxy}-piperidin-1-yl)-(R)-tetrahydrofuran-2-yl-methanone, 2HCl]	100 to 999
O=C(C1CC1)N1CCC(Oc2ccc(-c3ccc(N4CCOCC4)nc3)cc2)CC1 [Example 387, Cyclopropyl-{4-[4-(6-morpholin-4-yl-pyridin-3-yl)-phenoxy]-piperidin-1-yl}-methanone]	1000 to 10000
CCC(=O)N1CCC(Oc2ccc(-c3ccc4cccnc4c3N(C)C)cc2)CC1 [Example 332, 1-{4-[4-(8-Dimethylaminoquinolin-7-yl)-phenoxy]-piperidin-1-yl}-propan-1-one]	1000 to 10000
CCC(=O)N1CCC(Oc2ccc(-c3ccc4c(OC)nccc4c3)cc2)CC1 [Example 433]	100 to 999
O=C(C1CC1)N1CCC(Oc2ccc(-c3ccc4cccnc4c3OCCCN3CCCC3)cc2)CC1 [Example 176, Cyclopropyl-(4-{4-[8-(3-pyrrolidin-1-yl-propoxy)-quinolin-7-yl]-phenoxy}-piperidin-1-yl)-methanone, HCl]	1000 to 10000
Cc1c(-c2ccc(O[C@@H]3CCN(C(=O)C4CC4)C[C@H]3F)cc2)ccc2cccnc12 (relative stereo) [Example 374, Cyclopropyl-{trans-3-fluoro-4-[4-(8-methylquinolin-7-yl)-phenoxy]-piperidin-1-yl}-methanone, HCl]	100 to 999
CCC(=O)N1CCC(Oc2ccc(-c3cc4ccccc4cn3)cc2)CC1 [Example 43, 1-[4-(4-Isoquinolin-3-yl-phenoxy)-piperidin-1-yl]-propan-1-one]	1 to 99
O=C(C1CCCCO1)N1CCC(Oc2ccc(-c3cnc4ccccc4c3)cc2)CC1 (stereo not drawn) [Example 106, [4-(4-Quinolin-3-yl-phenoxy)-piperidin-1-yl]-(tetrahydropyran-2-yl)-methanone, 2HCl]	100 to 999
CCC(=O)N1CCC(Oc2ccc(-c3cnc4c(OC)cccc4c3)cc2)CC1 [Example 57, 1-{4-[4-(8-Methoxyquinolin-3-yl)-phenoxy]-piperidin-1-yl}-propan-1-one]	100 to 999
COc1c(-c2ccc(OC3CCN(C(=O)N4CCCO4)CC3)cc2)ccc2cccnc12 [Example 79, Isoxazolidin-2-yl-{4-[4-(8-methoxyquinolin-7-yl)-phenoxy]-piperidin-1-yl}-methanone]	1 to 99

SMILES	IC50 [nM]
CCC(=O)N1CCC(Oc2ccc(-c3ccc4cccnc4c3)cn2)CC1 [Example 135, 1-[4-(5-Quinolin-7-yl-pyridin-2-yloxy)-piperidin-1-yl]-propan-1-one, HCl]	100 to 999
CC(C)C(=O)N1CCC(Oc2ccc(-c3cnc4ccccc4c3)nc2)CC1 [Example 141, 2-Methyl-1-[4-(6-quinolin-3-yl-pyridin-3-yloxy)-piperidin-1-yl]-propan-1-one, 2HCl]	1000 to 10000
O=C(c1ccccc1)N1CCC(Oc2ccc(-c3cnc4ccccc4c3)cc2)CC1 [Example 127, Phenyl-[4-(4-quinolin-3-yl-phenoxy)-piperidin-1-yl]-methanone, HCl]	1000 to 10000
CCC(=O)N1CCC(Oc2ccc(-c3cnc4cc(OC)c(OC)cc4c3)cc2)CC1 [Example 55, 1-{4-[4-(6,7-Dimethoxyquinolin-3-yl)-phenoxy]-piperidin-1-yl}-propan-1-one]	1000 to 10000
CCC(=O)N1CCC(Oc2ccc(-c3ccc4cccnc4c3C)cc2)C(C)C1 (mixture of isomers) [Example 375, 1-{3-Methyl-4-[4-(8-methylquinolin-7-yl)-phenoxy]-piperidin-1-yl}-propan-1-one, TFA salt]	1 to 99
COC(=O)N1CCC(Oc2ccc(-c3cnc4ccccc4c3)cc2F)CC1 [Example 15, 4-(2-Fluoro-4-quinolin-3-yl-phenoxy)-piperidine-1-carboxylic acid methyl ester]	1000 to 10000
CCC(=O)N1CCC(Oc2ccc(-c3cnc4ccccc4c3N3CCN(C)CC3)cc2)CC1 [Example 239, 1-(4-{4-[4-(4-Methylpiperazin-1-yl)-quinolin-3-yl]-phenoxy}-piperidin-1-yl)-propan-1-one]	1000 to 10000
CCC(=O)N1CC[C@H](Oc2ccc(-c3ccc4cccnc4c3C)cc2)[C@H](F)C1 (relative stereo) [Example 367, 1-{cis-3-Fluoro-4-[4-(8-methylquinolin-7-yl)-phenoxy]-piperidin-1-yl}-propan-1-one, HCl]	1000 to 10000
CCC(=O)N1CCC(Oc2ccc(-c3ccc4cnccc4c3)nc2)CC1 [Example 147, 1-[4-(6-Isoquinolin-6-yl-pyridin-3-yloxy)-piperidin-1-yl]-propan-1-one, 2HCl]	1000 to 10000
CCC(=O)N1CCC(Oc2ccc(-c3cnc4ccccc4c3)nc2)CC1 [Example 140, 1-[4-(6-Quinolin-3-yl-pyridin-3-yloxy)-piperidin-1-yl]-propan-1-one, 2HCl]	1000 to 10000
COCC(=O)N1CCC(Oc2ccc(-c3cnc4ccccc4c3)cc2)CC1 [Example 105]	1 to 99
COc1cc(-c2ccc(OC3CCN(C(=O)C4CC4)CC3)cc2)cn2nccc12 [Example 411, Cyclopropyl-{4-[4-(4-methoxypyrazolo[1,5-a]pyridin-6-yl)-phenoxy]-piperidin-1-yl}-methanone, HCl]	100 to 999
CCC(=O)N1CCC(Oc2ccc(-c3ccc(N4CCOCC4)nc3)cc2)CC1 [Example 386, 1-{4-[4-(6-Morpholin-4-yl-pyridin-3-yl)-phenoxy]-piperidin-1-yl}-propan-1-one]	1000 to 10000
CN(C)c1c(-c2ccc(OC3CCN(C(=O)[C@H]4CCCO4)CC3)cc2)cnc2ccccc12 [Example 233, {4-[4-(4-Dimethylaminoquinolin-3-yl)-phenoxy]-piperidin-1-yl}-(R)-tetrahydrofuran-2-yl-methanone]	1000 to 10000
COc1ccc2ncc(-c3ccc(OC4CCN(C(=O)C5CC5)CC4)cc3)cc2c1 [Example 54, Cyclopropyl-{4-[4-(6-methoxyquinolin-3-yl)-phenoxy]-piperidin-1-yl}-methanone]	100 to 999

Source: patent publication US9902696B2, “1,4-substituted piperidine derivatives” (Cephalon, Inc., priority 2015, dated 2018)
